# Entries after “also recorded” stand apart in the source; their conditions may differ. Non-standard residues stand in square brackets, D forms with d. Residues, ends and D or L forms follow the SMILES beside them. No end group written: not given here. *: point of attachment. 5FAM = O=C1OC2(c3ccc(O)cc3Oc3cc(O)ccc32)c2ccc(C(=O)*)cc21; NMeR = CN[C@@H](CCCNC(=N)N)C(=O)O
# System: not listed separately
# Test: human blood plasma having a concentration of 50% by mass
# Settings: up to 120 minutes
Compound,not cleaved,cleaved bond,fragment found
R-mR-PTTWHKP-G-RRPTTWHKP (H-R[NMeR]PTTWHKPGRRPTTWHKP-OH; N-terminus and C-terminus assumed; SMILES C[C@@H](O)[C@H](NC(=O)[C@@H](NC(=O)[C@@H]1CCCN1C(=O)[C@H](CCCNC(=N)N)NC(=O)[C@H](CCCNC(=N)N)NC(=O)CNC(=O)[C@@H]1CCCN1C(=O)[C@H](CCCCN)NC(=O)[C@H](Cc1c[nH]cn1)NC(=O)[C@H](Cc1c[nH]c2ccccc12)NC(=O)[C@@H](NC(=O)[C@@H](NC(=O)[C@@H]1CCCN1C(=O)[C@H](CCCNC(=N)N)N(C)C(=O)[C@@H](N)CCCNC(=N)N)[C@@H](C)O)[C@@H](C)O)[C@@H](C)O)C(=O)N[C@@H](Cc1c[nH]c2ccccc12)C(=O)N[C@@H](Cc1c[nH]cn1)C(=O)N[C@@H](CCCCN)C(=O)N1CCC[C@H]1C(=O)O),100% after 120 minutes,,
RRPTTWHKP,,"arginine-arginine, 5 min","RPTTWHKP and RRPTTWH and RPTTWH and TTWHKP and TTWH and TWH, 30 min and WH, 60 min"
R-mR-PTTWHKP-G-pkhwttprr (H-R[NMeR]PTTWHKPG[dP][dK][dH][dW][dT][dT][dP][dR][dR]-OH; N-terminus and C-terminus assumed; SMILES C[C@H](O)[C@@H](NC(=O)[C@@H](Cc1c[nH]c2ccccc12)NC(=O)[C@@H](Cc1c[nH]cn1)NC(=O)[C@@H](CCCCN)NC(=O)[C@H]1CCCN1C(=O)CNC(=O)[C@@H]1CCCN1C(=O)[C@H](CCCCN)NC(=O)[C@H](Cc1c[nH]cn1)NC(=O)[C@H](Cc1c[nH]c2ccccc12)NC(=O)[C@@H](NC(=O)[C@@H](NC(=O)[C@@H]1CCCN1C(=O)[C@H](CCCNC(=N)N)N(C)C(=O)[C@@H](N)CCCNC(=N)N)[C@@H](C)O)[C@@H](C)O)C(=O)N[C@@H](C(=O)N1CCC[C@@H]1C(=O)N[C@H](CCCNC(=N)N)C(=O)N[C@H](CCCNC(=N)N)C(=O)O)[C@H](C)O),no degradation products within 120 minutes; 100% at 120 min,,
[FAM]-RRPTTWHKP (5FAM-RRPTTWHKP-OH; C-terminus assumed; SMILES C[C@@H](O)[C@H](NC(=O)[C@@H](NC(=O)[C@@H]1CCCN1C(=O)[C@H](CCCNC(=N)N)NC(=O)[C@H](CCCNC(=N)N)NC(=O)c1ccc2c(c1)C(=O)OC21c2ccc(O)cc2Oc2cc(O)ccc21)[C@@H](C)O)C(=O)N[C@@H](Cc1c[nH]c2ccccc12)C(=O)N[C@@H](Cc1c[nH]cn1)C(=O)N[C@@H](CCCCN)C(=O)N1CCC[C@H]1C(=O)O),,,"[FAM]-RRPTTWH, 10 min"
RRPTTWHKP-G-RRPTTWHKP (RRPTTWHKPGRRPTTWHKP),,,"TTWHKP-G-RRPTTWHKP, 60 min; also recorded: RPTTWHKP-G-RRPTTWHKP, 20 min"
RRPTTWHKP-G-RRPTTWHKP-G-RRPTTWHKP (RRPTTWHKPGRRPTTWHKPGRRPTTWHKP),no degradation products within 120 minutes; 100% at 120 min,,
RRPTTWHKP-G-pkhwttprr (H-RRPTTWHKPG[dP][dK][dH][dW][dT][dT][dP][dR][dR]-OH; N-terminus and C-terminus assumed; SMILES C[C@H](O)[C@@H](NC(=O)[C@@H](Cc1c[nH]c2ccccc12)NC(=O)[C@@H](Cc1c[nH]cn1)NC(=O)[C@@H](CCCCN)NC(=O)[C@H]1CCCN1C(=O)CNC(=O)[C@@H]1CCCN1C(=O)[C@H](CCCCN)NC(=O)[C@H](Cc1c[nH]cn1)NC(=O)[C@H](Cc1c[nH]c2ccccc12)NC(=O)[C@@H](NC(=O)[C@@H](NC(=O)[C@@H]1CCCN1C(=O)[C@H](CCCNC(=N)N)NC(=O)[C@@H](N)CCCNC(=N)N)[C@@H](C)O)[C@@H](C)O)C(=O)N[C@@H](C(=O)N1CCC[C@@H]1C(=O)N[C@H](CCCNC(=N)N)C(=O)N[C@H](CCCNC(=N)N)C(=O)O)[C@H](C)O),,,"RPTTWHKP-G-pkhwttprr, Start; also recorded: TTWHKP-G-pkhwttprr, Start"

# System: pancreatic cancer cells (BxPC3, PK-8, AsPC1)
# Test: Accumulation of FLC-labeled peptides in cells (Test Example 8)
# Format: cell-based, human
# Settings: 2 μM, 37° C., 2 hours
# Description: Tests were conducted to confirm the accumulation of various peptides into each of the cells shown below in Table 13. Further, the peptides shown below in Table 14 were used.
# Each peptide was added to each of the cells shown in Table 13 in an amount sufficient to achieve a final concentration in the medium of 2 μM, and following cultivation of the cells at 37° C. for 2 hours, the sample was washed 3 times with a medium containing no peptide to remove any peptide within the medium. Subsequently, the incorporation of each of the peptides into each of the cells was evaluated visually using an inverted fluorescence microscope. Prior to the microscopic examination, the culture supernatant to which the peptide had been added was removed, and following washing three times with 1×PBS (−), a trypsin treatment was conducted to remove the adherent cells, and the resultant was immediately transferred into a new 96-well plate and once again suspended in fresh culture solution before the microscopic examination was performed. In FIG. 23, “pep(−)” indicates the control cells to which no peptide was administered, and “single PCPP11” indicates cells to which FLC (fluorescein)-PCPP11 had been added. Further, “mal” indicates a maleimide group, with the peptide and the FLC bonded together by forming a covalent bond between the thiol group (—SH) of a cysteine residue and a maleimide group introduced into the FLC.
Compound,fluorescence compared with FLC-PCPP11,fluorescence detected in all of the pancreatic cancer cells
R-mR-PTTWHKP-C(-[FLC])-RRPTTWHKP-G-RRPTTWHKP [NmL-Cys(-FLC)-LL],stronger fluorescence,particularly strong fluorescence
RPTTWHKP-C(-[FLC])-RRPTTWHKP-C(-[FLC])-RRPTTWHKP [L(-R)-Cys(-FLC)-L-Cys(-FLC)-L],stronger fluorescence,particularly strong fluorescence
RPTTWHKP-G-RRPTTWHKP-C(-[FLC])-RRPTTWHKP (RPTTWHKPGRRPTTWHKPC(fluorescein)RRPTTWHKP) [L(-R)L-Cys(-FLC)-L],stronger fluorescence,particularly strong fluorescence
RPTTWHKP-G-RRPTTWHKP-K(-[FLC])-RRPTTWHKP (RPTTWHKPGRRPTTWHKPK(fluorescein)RRPTTWHKP) [L(-R)L-Lys(-FLC)-L],stronger fluorescence,particularly strong fluorescence
R-mR-PTTWHKP-C(-[FLC])-RRPTTWHKP [NmL-Cys(-FLC)-L],stronger fluorescence,

# System: BxPC3 cells, PK-8 cells, AsPC1 cells and MIA-Paca2 cells (PDAC)
# Test: Accumulation of PCPP11 and partially deleted peptides in cells (Reference Example 3)
# Format: cell-based, human
# Settings: same method as Test Example 2
# Description: Test were conducted confirming the accumulation of PCPP11 and partially deleted peptides thereof in BxPC3 cells, PK-8 cells, AsPC1 cells and MIA-Paca2 cells (all cell lines derived from human invasive pancreatic ductal adenocarcinoma (PDAC)) and in H2110 cells (lung adenocarcinoma cells). The peptides shown below in Table 10 were used.
# Using the same method as Test Example 2, each peptide was added to each of the cells and then observed under a microscope. In FIG. 16, “full length” indicates the cells to which FAM-PCPP11 was added, “trunc-ver1” indicates cells to which a trunc-ver1-PCPP11 was added, “trunc-ver2” indicates cells to which a trunc-ver2-PCPP11 was added, and “trunc-ver3” indicates cells to which a trunc-ver3-PCPP11 was added.
row,Compound,order of the strength of fluorescence in the pancreatic cancer cells
1,"C[C@@H](O)[C@H](NC(=O)[C@@H](NC(=O)[C@@H]1CCCN1C(=O)[C@H](CCCNC(=N)N)NC(=O)[C@H](CCCNC(=N)N)NC(=O)c1ccc2c(c1)C(=O)OC21c2ccc(O)cc2Oc2cc(O)ccc21)[C@@H](C)O)C(=O)N[C@@H](Cc1c[nH]c2ccccc12)C(=O)N[C@@H](Cc1c[nH]cn1)C(=O)O [FAM-trunc-ver3-PCPP11, [FAM]-RRPTTWH] (5FAM-RRPTTWH-OH; C-terminus assumed)",full-length≥trunc-ver3>trunc-ver1>>trunc-ver2
2,"C[C@@H](O)[C@H](NC(=O)c1ccc2c(c1)C(=O)OC21c2ccc(O)cc2Oc2cc(O)ccc21)C(=O)N[C@H](C(=O)N[C@@H](Cc1c[nH]c2ccccc12)C(=O)N[C@@H](Cc1c[nH]cn1)C(=O)N[C@@H](CCCCN)C(=O)N1CCC[C@H]1C(=O)O)[C@@H](C)O [FAM-trunc-ver2-PCPP11, [FAM]-TTWHKP] (5FAM-TTWHKP-OH; C-terminus assumed)",full-length≥trunc-ver3>trunc-ver1>>trunc-ver2
3,C[C@@H](O)[C@H](NC(=O)[C@@H](NC(=O)[C@@H]1CCCN1C(=O)[C@H](CCCNC(=N)N)NC(=O)c1ccc2c(c1)C(=O)OC21c2ccc(O)cc2Oc2cc(O)ccc21)[C@@H](C)O)C(=O)N[C@@H](Cc1c[nH]c2ccccc12)C(=O)N[C@@H](Cc1c[nH]cn1)C(=O)N[C@@H](CCCCN)C(=O)N1CCC[C@H]1C(=O)O [FAM-trunc-ver1-PCPP11] (5FAM-RPTTWHKP-OH; C-terminus assumed),full-length≥trunc-ver3>trunc-ver1>>trunc-ver2

# Same assay, conditions: same method as Test Example 2 (2 μM, 37° C., 2 hours)
row,Compound,fluorescence detected (absorbed fluorescence)
1,"C[C@@H](O)[C@H](NC(=O)[C@@H](NC(=O)[C@@H]1CCCN1C(=O)[C@H](CCCNC(=N)N)NC(=O)c1ccc2c(c1)C(=O)OC21c2ccc(O)cc2Oc2cc(O)ccc21)[C@@H](C)O)C(=O)N[C@@H](Cc1c[nH]c2ccccc12)C(=O)O [FAM-trunc-ver4-PCPP11, [FAM]-RPTTW] (5FAM-RPTTW-OH; C-terminus assumed)",almost no fluorescence was observed
2,"C[C@@H](O)[C@H](NC(=O)c1ccc2c(c1)C(=O)OC21c2ccc(O)cc2Oc2cc(O)ccc21)C(=O)N[C@H](C(=O)N[C@@H](Cc1c[nH]c2ccccc12)C(=O)N[C@@H](Cc1c[nH]cn1)C(=O)N[C@@H](CCCCN)C(=O)N1CCC[C@H]1C(=O)O)[C@@H](C)O [FAM-trunc-ver2-PCPP11, [FAM]-TTWHKP] (5FAM-TTWHKP-OH; C-terminus assumed)",marked reduction in absorbed fluorescence
3,"C[C@@H](O)[C@H](NC(=O)[C@@H](NC(=O)[C@@H]1CCCN1C(=O)c1ccc2c(c1)C(=O)OC21c2ccc(O)cc2Oc2cc(O)ccc21)[C@@H](C)O)C(=O)N[C@@H](Cc1c[nH]c2ccccc12)C(=O)N[C@@H](Cc1c[nH]cn1)C(=O)O [FAM-trunc-ver5-PCPP11, [FAM]-PTTWH] (5FAM-PTTWH-OH; C-terminus assumed)",almost no fluorescence was observed
